Measurements from patent publication US5574033A, “Heterocyclic compound and cardiotonic agent containing the same as effective component” (Zenyaku Kogyo Kabushiki Kaisha, priority 1991, dated 1996).
Where a name gives a salt, the structure may show the parent alone.

Assays:
[1] = system: papillary muscles of a right ventricle; test: Pharmacological Test 1: contraction of isolated right ventricular papillary muscles upon electric stimulation (inotropic effect); design: species or system male Hartley guinea pig; settings: 3×10^-5 M; percentage of increment of contractile force, isoprotelenol (1×10^-8 M) = 100%; 1 Hz stimulation, 30° C.
Experimental: (§1) Nos. of the compounds in the pharmacological tests 1 and 2 correspond to those in Examples referred to hereinafter.
(§2) A heart was removed from a male Hartley guinea pig (having a body weight of about 400 g or so) and a right atrium and papillary muscles of a right ventricle were separated from the removed heart. These preparations were suspended in 15 ml of Magnus' bath under load of 0.5 g (papillary muscles) or 1.0 g (right atria). Contraction of papillary muscles upon electric stimulation (1 Hz, 5 msec, 1.5×threshold voltage) and spontaneous contraction of the right atria were recorded through a transducer (manufactured by Orientec, T7-8-240) by a polygraph system (manufactured by NIHONKOHDEN, RMP-6008 and WT-685G).
(§3) Krebs-Henseleit solution was used as nutritive liquid bubbled with mixed gases of 95% O2 with 5% CO2 at 30° C. The value of inotropic effect is a percentage of increment of contractile force by samples when that by isoprotelenol (1×10^-8 M) is considered to be 100%. The value of chronotropic effect is a percentage of atrial rate after the injection of samples when the atrial rate before the injection is considered to be 100%.

[2] = system: right atria; test: Pharmacological Test 1: spontaneous contraction of isolated right atria (chronotropic effect); design: species or system male Hartley guinea pig; settings: Cavia porcellus; 3×10^-5 M; percentage of atrial rate after injection, rate before injection = 100%; 30° C.
Experimental: as §1, §2, §3

[3] = Pharmacological Test 2: acute toxicity, tail vein administration, up-and-down method; settings: mouse, in vivo, iv, tail vein of ddY mice, in physiological saline solution
Experimental: as §1
The acute toxicity was determined by administrating the sample compound, which was dissolved by physiological saline solution, in the tail vein of ddY mice (5-weeks-old, having a body weight of 25 to 28 g) and LD50 was obtained by the up-and-down method.

Structure (SMILES) | Inotropic Effect [1] [%] | activity at 30 µM [2] [%] | LD50 [3] [mg/kg]
O=C1NN=C(C2=CCN(CC(O)c3ccc([N+](=O)[O-])cc3)CC2)CS1 (stereo not drawn) [Compound 45, 5-[1-[2-Hydroxy-2-(4-nitrophenyl)ethyl]-1,2,5,6-tetrahydropyrid-4-yl]-3H,6H-1,3,4-thiadiazin-2-one] | 99.5 | 79.1 | –
O=C1NN=C(C2=CCN(CC(O)c3ccc(F)cc3)CC2)CS1 (stereo not drawn) [Compound 46, 5-[1-[2-(4-Fluorophenyl)-2-hydroxyethyl]-1,2,5,6-tetrahydropyrid-4-yl]-3H,6H-1,3,4-thiadiazin-2-one] | 61.9 | 81.6 | –
N#Cc1ccc(C(O)CN2CC=C(C3=NNC(=O)SC3)CC2)cc1 (stereo not drawn) [Compound 47, 5-[1-[2-(4-Cyanophenyl)-2-hydroxyethyl]-1,2,5,6-tetrahydropyrid-4-yl]-3H,6H-1,3,4-thiadiazin-2-one] | 81.4 | 78.2 | –
O=C1NN=C(C2=CCN(CC(O)c3cccc(C(F)(F)F)c3)CC2)CS1 (stereo not drawn) [Compound 48, 5-[1-[2-Hydroxy-2-[3-(trifluoromethyl)phenyl]ethyl]-1,2,5,6-tetrahydropyrid-4-yl]-3H,6H-1,3,4-thiadiazin-2-one] | 45.4 | 77.7 | –
COc1ccc(C(O)CN2CC=C(C3=NNC(=O)CC3)CC2)cc1 (stereo not drawn) [Compound 49, 4,5-Dihydro-6-[1-[2-hydroxy-2-(4-methoxyphenyl)ethyl]-1,2,5,6-tetrahydropyrid-4-yl]pyridazin-3(2H)-one] | 27.7 | 87.6 | –
O=C1CCC(C2=CCN(CC(O)c3ccccc3Cl)CC2)=NN1 (stereo not drawn) [Compound 50, 6-[1-[2-(2-Chlorophenyl)-2-hydroxyethyl]-1,2,5,6-tetrahydropyrid-4-yl]-4,5-dihydropyridazin-3 (2H)-one] | 38.9 | 98.6 | –
O=C1CCC(C2=CCN(CC(O)c3ccc(F)cc3)CC2)=NN1 (stereo not drawn) [Compound 51, 6-[1-[2-(4-Fluorophenyl)-2-hydroxyethyl]-1,2,5,6-tetrahydropyrid-4-yl]-4,5-dihydropyridazin-3 (2H)-one] | 36.8 | 91.4 | –
O=C1CCC(C2=CCN(CC(O)c3ccc([N+](=O)[O-])cc3)CC2)=NN1 (stereo not drawn) [Compound 53, 4,5-Dihydro-6-[1-[2-hydroxy-2-(4-nitrophenyl)ethyl]-1,2,5,6-tetrahydropyrid-4-yl]pyridazin-3 (2H)-one] | 102.9 | 87.8 | –
O=C1CCC(C2=CCN(CC(O)c3ccccc3C(F)(F)F)CC2)=NN1 (stereo not drawn) [Compound 54, 4,5-Dihydro-6-[1-[2-hydroxy-2-[2-(trifluoromethyl)phenyl]ethyl]-1,2,5,6-tetrahydropyrid-4-yl]pyridazin-3 (2H) -one] | 25.2 | 97.3 | –
O=C1CNC(C2=CCN(CC(O)c3ccc(Cl)cc3)CC2)=NN1 (stereo not drawn) [Compound 57, 3-[1-[2-(4-Chlorophenyl)-2-hydroxyethyl]-1,2,5,6-tetrahydropyrid-4-yl]-4,5-dihydro-1,2,4-triazin-6 (1H)-one] | 46.8 | 94.9 | –
O=C1CNC(C2=CCN(CC(O)c3ccc([N+](=O)[O-])cc3)CC2)=NN1 (stereo not drawn) [Compound 60, 4,5-Dihydro-3-[1-[2-hydroxy-2-(4-nitrophenyl)ethyl]-1,2,5,6-tetrahydropyrid-4-yl]-1,2,4-triazin-6(1H)-one] | 43.8 | 92.6 | –
N#Cc1ccc(C(O)CN2CC=C(C3=NNC(=O)CN3)CC2)cc1 (stereo not drawn) [Compound 64, 3-[1-[2-(4-Cyanophenyl)-2-hydroxyethyl]-1,2,5,6-tetrahydropyrid-4-yl]-4,5-dihydro-1,2,4-triazin-6(1H)-one] | 23.8 | 93 | –
O=C1NN=C(C2=CCN(CC(O)c3ccc4ccccc4c3)CC2)CS1 (stereo not drawn) [Compound 69, 5-[1-[2-Hydroxy-2-(2-naphthyl)ethyl]-1,2,5,6-tetrahydropyrid-4-yl]-3H, 6H-1,3,4-thiadiazin-2-one] | 28.6 | 79.7 | –
COc1ccc(C(CN2CC=C(C3=NNC(=O)CS3)CC2)OC)cc1 (stereo not drawn) [Compound 70, 2-[1-[2-Methoxy-2-(4-methoxyphenyl)ethyl]-1,2,5,6-tetrahydropyrid-4-y1]-4H,6H-1,3,4-thiadiazin-5-one] | 56.0 | 99.2 | –
COc1ccc(C(CN2CC=C(C3=NNC(=O)CS3)CC2)OC(C)C)cc1 (stereo not drawn) [Compound 71, 2-[1-[2-Isopropoxy-2-(4-methoxyphenyl)ethyl]-1,2,5,6-tetrahydropyrid-4-yl]-4H,6H-1,3,4-thiadiazin-5-one] | 25.3 | 98.7 | –
O=C1CSC(c2ccncc2)=NN1 [a, 2-(4-Pyridyl)-4H,6H-1,3,4-thiadiazin-5-one, reference compound] | 22.2 | 159 | –
O=C1NN=C(c2ccncc2)CS1 [b, 5-(4-Pyridyl)-3H,6H-1,3,4-thiadiazin-2-one, reference compound] | 36.2 | 117 | –
O=C1CCC(c2ccncc2)=NN1 [c, 4,5-Dihydro-6-(4-pyridyl)-pyridazin-3(2H)-one, reference compound] | 7.3 | 110 | –
O=C1CNC(c2ccncc2)=NN1 [d, 4,5-Dihydro-3-(4-pyridyl)-1,2,4-triazin-6(1H)-one, reference compound] | 4.6 | 112 | –
O=C1CSC(C2=CCN(CC(O)c3ccc(Cl)cc3)CC2)=NN1 (stereo not drawn) [hydrochloride of compound 13, Hydrochloride of 2-[1-[2-(4-chlorophenyl)-2-hydroxyethyl]-1,2,5,6-tetrahydropyrid-4-yl]-4H,6H-1,3,4-thiadiazin-5-one] | – | – | 101
Cc1cccc(C(O)CN2CC=C(C3=NNC(=O)CS3)CC2)c1 (stereo not drawn) [hydrochloride of compound 20, Hydrochloride of 2-[1-[2-hydroxy-2-(3-methylphenyl)ethyl]-1,2,5,6-tetrahydropyrid-4-yl]-4H,6H-1,3,4-thiadiazin-5-one] | – | – | 173
Cc1ccc(C(O)CN2CC=C(C3=NNC(=O)CS3)CC2)cc1 (stereo not drawn) [hydrochloride of compound 21, Hydrochloride of 2-[1-[2-hydroxy-2-(4-methylphenyl)ethyl]-1,2,5,6-tetrahydropyrid-4-yl]-4H,6H-1,3,4-thiadiazin-5-one] | – | – | 226
Cc1ccc(C(O)CN2CC=C(C3=NNC(=O)CS3)CC2)c(C)c1 (stereo not drawn) [hydrochloride of compound 25, Hydrochloride of 2-[1-[2-hydroxy-2-(2,4-dimethylphenyl)ethyl]-1,2,5,6-tetrahydropyrid-4-yl]-4H,6H-1,3,4-thiadiazin-5-one] | – | – | 135
O=C1CSC(C2=CCN(CC(O)c3cccc([N+](=O)[O-])c3)CC2)=NN1 (stereo not drawn) [hydrochloride of compound 30, Hydrochloride of 2-[1-[2-hydroxy-2-(3-nitrophenyl)ethyl]-1,2,5,6-tetrahydropyrid-4-yl]-4H,6H-1,3,4-thiadiazin-5-one] | – | – | 160
O=C1CSC(C2=CCN(CC(O)c3ccc(F)cc3)CC2)=NN1 (stereo not drawn) [hydrochloride of compound 35, Hydrochloride of 2-[1-[2-(4-fluorophenyl)-2-hydroxyethyl]-1,2,5,6-tetrahydropyrid-4-yl]-4H,6H-1,3,4-thiadiazin-5-one] | – | – | 226
O=C1CNC(C2=CCN(CC(O)c3ccc([N+](=O)[O-])cc3)CC2)=NN1 (stereo not drawn) [hydrochloride of compound 60, Hydrochloride of 4,5-dihydro-3-[1-[2-hydroxy-2-(4-nitrophenyl)ethyl]-1,2,5,6-tetrahydropyrid-4-yl]-1,2,4-triazin-6(1H)-one] | – | – | 226
